In US9657057B2, “Dipeptide and tripeptide epoxy ketone protease inhibitors” (Onyx Therapeutics, Inc., priority 2013, dated 2017) one finds IC50 and solubility data, which are given here for 15 compounds.

In brackets after ≈: the same amount, converted by molar mass.

The target of one series is T1, β5 (Homo sapiens, UniProt P20618+P28074).
T1 construct: endogenous in cells; host or cells: MOLT-4
The series is described as follows: ProCISE proteasome subunit assay, β5. The class given is biochemical. The following applies: MOLT4 lysate Hu 1 h. Here is the method: (§1) This assay was used to assess the inhibitory activity against each of LMP2, LMP7, MECL1, β1, β2, and β5. Briefly, test compounds were serially diluted in DMSO at 100× concentration, then diluted to 10× in aqueous hypotonic lysis buffer. Lysate from the human acute lymphoblastic leukemia cell line, MOLT-4, was treated for 1 hour at 25° C. with compound at a final 1× concentration. […] Following this, lysate was denatured in guanidine hydrochloride, and subunits bound to probe were isolated with streptavidin-conjugated sepharose beads. Individual subunits were probed with subunit-specific primary antibodies, followed by HRP-conjugated secondary antibodies. A chemiluminescent substrate was used to generate signal associated with HRP binding, which was detected on a plate reader. Luminescent signal was normalized to protein content, then, percent activity calculated relative to DMSO-treated controls to generate IC50 curves.

The nature of another series: Solubility pH 7. Type of series: physicochemical. The note with it: pH 7, aqueous buffer.
The target of another series is T2, LMP7 (Homo sapiens, UniProt P20618+P28062).
T2 construct: endogenous in cells; host or cells: MOLT-4
The series is described as follows: ProCISE proteasome subunit assay, LMP7. The class given is biochemical. The note with it: MOLT4 lysate Hu 1 h. Here is the method:
as §1

The target in series [1] is i20S (20S immunoproteasome) (Homo sapiens, UniProt P20618+P28062). The series is described as follows: 20S proteasome assay, chymotrypsin-like activity (LLVY), i20S. The following applies: LLVY i20S Hu 1 h CONT: IC50 (nM), succinyl-Leu-Leu-Val-Tyr-AMC. Type of series: biochemical. An excerpt:
(§2) Assay buffer consisted of TE buffer [20 mmol/L Tris (pH 8.0), 0.5 mmol/L EDTA] with (20S) or without (cell lysate) 0.03% SDS. Reactions were initiated by enzyme or lysate addition and monitored for AMC product formation at 27jC with a plate-based spectofluorometer (Tecan).

Series [2] concerns the target c20S (constitutive 20S proteasome) (Homo sapiens, UniProt P20618+P28074). Kind of series: 20S proteasome assay, chymotrypsin-like activity (LLVY), c20S. The class given is biochemical. The following applies: LLVY c20S Hu 1 h CONT: IC50 (nM), succinyl-Leu-Leu-Val-Tyr-AMC.
Text: as §2

For `CCOCC(=O)N[C@H](C)C(=O)N[C@@H](Cc1ccc(OC)cc1)C(=O)N[C@@H](CC1CCCC1)C(=O)[C@@]1(C)CO1` [Compound C-2021, (S)—N—((S)-3-cyclopentyl-1-((R)-2-methyloxiran-2-yl)-1-oxopropan-2-yl)-2-((R)-2-(2-ethoxyacetamido)propanamido)-3-(4-methoxyphenyl)propanamide], the IC50 on β5 amounted to 30800 nM; at LMP7 it was 1890 nM; in series [1], 1220 nM; in series [2] it was 99000 nM. For the same compound, in the series “Solubility pH 7”, the concentration in solution (solubility) came to 103 µg/mL (≈ 193 µM).
In the case of `COc1ccc(C[C@H](NC(=O)[C@@H](C)NC(=O)CC(C)(C)O)C(=O)N[C@@H](CC2CCCC2)C(=O)[C@@]2(C)CO2)cc1` [Compound C-2028, N—((R)-1-(((S)-1-(((S)-3-cyclopentyl-1-((R)-2-methyloxiran-2-yl)-1-oxopropan-2-yl)amino)-3-(4-methoxyphenyl)-1-oxopropan-2-yl)amino)-1-oxopropan-2-yl)-3-hydroxy-3-methylbutanamide], the IC50 was 1160 nM against β5, 75.7 nM on LMP7, 11.9 nM in series [1] and 323 nM in series [2]. Also, the solubility in the series “Solubility pH 7” was 776 µg/mL (≈ 1420 µM).
As for `COc1ccc(C[C@H](NC(=O)[C@@H](CO)NC(=O)c2cc(C)no2)C(=O)N[C@@H](CC2CCCC2)C(=O)[C@@]2(C)CO2)cc1` [Compound C-2030, N—((R)-1-(((S)-1-(((S)-3-cyclopentyl-1-((R)-2-methyloxiran-2-yl)-1-oxopropan-2-yl)amino)-3-(4-methoxyphenyl)-1-oxopropan-2-yl)amino)-3-hydroxy-1-oxopropan-2-yl)-3-methylisoxazole-5-carboxamide], the concentration for half-maximal inhibition (IC50) against β5 worked out at 2130 nM; against LMP7, 315 nM; in series [1], 71.7 nM; in series [2], 785 nM. Also, the solubility in “Solubility pH 7” stood at 286 µg/mL (≈ 502 µM).
With `COc1ccc(C[C@H](NC(=O)[C@H](CO)NC(C)=O)C(=O)N[C@@H](Cc2ccccc2)C(=O)[C@@]2(C)CO2)cc1` [Compound C-2007, (S)-2-acetamido-3-hydroxy-N—((S)-3-(4-methoxyphenyl)-1-(((S)-1-((R)-2-methyloxiran-2-yl)-1-oxo-3-phenylpropan-2-yl)amino)-1-oxopropan-2-yl)propanamide], the IC50 at β5 came to 478 nM; at LMP7, 211 nM; in series [1], 118 nM; in series [2] it was 432 nM. Besides, the solubility in the series “Solubility pH 7” was determined as 728 µg/mL (≈ 1420 µM).
Regarding `COc1ccc(C[C@H](NC(=O)[C@@H](C)NC(=O)CC(C)(C)O)C(=O)N[C@@H](Cc2ccccc2)C(=O)[C@@]2(C)CO2)cc1` [Compound C-2056, 3-hydroxy-N—((R)-1-(((S)-3-(4-methoxyphenyl)-1-(((S)-1-((R)-2-methyloxiran-2-yl)-1-oxo-3-phenylpropan-2-yl)amino)-1-oxopropan-2-yl)amino)-1-oxopropan-2-yl)-3-methylbutanamide], the IC50 came out at 291 nM on β5, 52.2 nM at LMP7, 28.9 nM in series [1] and 191 nM in series [2]. In addition, the concentration in solution in “Solubility pH 7” (solubility) came to 3730 µg/mL (≈ 6730 µM).
As to `COc1ccc(C[C@H](NC(=O)[C@@H](C)NC(=O)CC(C)(C)O)C(=O)N[C@@H](CC2=CCCC2)C(=O)[C@@]2(C)CO2)cc1O` [Compound C-2060, N—((R)-1-(((S)-1-(((S)-3-(cyclopent-1-en-1-yl)-1-((R)-2-methyloxiran-2-yl)-1-oxopropan-2-yl)amino)-3-(3-hydroxy-4-methoxyphenyl)-1-oxopropan-2-yl)amino)-1-oxopropan-2-yl)-3-hydroxy-3-methylbutanamide], the IC50 against β5 turned out to be 368 nM; against LMP7 it was 60.4 nM; in series [1], 17.3 nM; in series [2], 201 nM. This compound yielded a solubility in “Solubility pH 7” of 3010 µg/mL (≈ 5390 µM).
Consider `COc1ccc(C[C@H](NC(=O)[C@@H](C)NC(=O)CC(C)(C)O)C(=O)N[C@@H](CC2CCCC2)C(=O)[C@@]2(C)CO2)cc1O` [Compound C-2059, N—((R)-1-(((S)-1-(((S)-3-cyclopentyl-1-((R)-2-methyloxiran-2-yl)-1-oxopropan-2-yl)amino)-3-(3-hydroxy-4-methoxyphenyl)-1-oxopropan-2-yl)amino)-1-oxopropan-2-yl)-3-hydroxy-3-methylbutanamide], for which the IC50 against β5 came out at 534 nM; against LMP7, 71 nM; in series [1], 15.9 nM; in series [2] it was 246 nM. Moreover, the solubility in the series “Solubility pH 7” is 2450 µg/mL (≈ 4360 µM).
Consider `COc1ccc(C[C@H](NC(=O)[C@H](C)NC(=O)C(C)(F)F)C(=O)N[C@@H](Cc2ccccc2)C(=O)[C@@]2(C)CO2)cc1` [Compound C-2006], for which the IC50 stood at 180 nM at β5, 34.4 nM at LMP7, 6.1 nM in series [1] and 29 nM in series [2].
Consider `COc1ccc(C[C@H](NC(=O)[C@@H](C)NC(=O)c2cccnc2)C(=O)N[C@@H](CC2CCCC2)C(=O)[C@@]2(C)CO2)cc1` [Compound C-2032, N—((R)-1-(((S)-1-(((S)-3-cyclopentyl-1-((R)-2-methyloxiran-2-yl)-1-oxopropan-2-yl)amino)-3-(4-methoxyphenyl)-1-oxopropan-2-yl)amino)-1-oxopropan-2-yl)nicotinamide], for which the IC50 at β5 is 4050 nM; against LMP7, 452 nM; in series [1] it was 107 nM; in series [2] it was 1890 nM. Moreover, in the series “Solubility pH 7”, the solubility turned out to be 172 µg/mL (≈ 313 µM).
For the compound `COc1ccc(C[C@H](NC(=O)[C@@H](C)NC(=O)c2cnc(C)s2)C(=O)N[C@@H](CC2CCCC2)C(=O)[C@@]2(C)CO2)cc1` [Compound C-2026, N—((R)-1-(((S)-1-(((S)-3-cyclopentyl-1-((R)-2-methyloxiran-2-yl)-1-oxopropan-2-yl)amino)-3-(4-methoxyphenyl)-1-oxopropan-2-yl)amino)-1-oxopropan-2-yl)-2-methylthiazole-5-carboxamide], the IC50 against β5 stood at 3450 nM; at LMP7, 170 nM; in series [1], 64.6 nM; in series [2], 1360 nM. For the same compound, in the series “Solubility pH 7”, the solubility came to 126 µg/mL (≈ 221 µM).
Take `COc1ccc(C[C@H](NC(=O)[C@@H](C)NC(=O)Cc2cc(C)no2)C(=O)N[C@@H](CC2CCCC2)C(=O)[C@@]2(C)CO2)cc1` [Compound C-2015, (S)—N—((S)-3-cyclopentyl-1-((R)-2-methyloxiran-2-yl)-1-oxopropan-2-yl)-3-(4-methoxyphenyl)-2-((R)-2-(2-(3-methylisoxazol-5-yl)acetamido)propanamido)propanamide]: the IC50 on β5 came to 30400 nM; against LMP7, 3060 nM; in series [1], 2920 nM; in series [2], 18600 nM. This compound also showed a solubility in “Solubility pH 7” of 169 µg/mL (≈ 298 µM).
For `COc1ccc(C[C@H](NC(=O)[C@H](C)NC(=O)C(F)(F)F)C(=O)N[C@@H](Cc2ccccc2)C(=O)[C@@]2(C)CO2)cc1` [Compound C-2011, (S)-3-(4-Methoxyphenyl)-N—((S)-1-((R)-2-methyloxiran-2-yl)-1-oxo-3-phenylpropan-2-yl)-2-((S)-2-(2,2,2-trifluoroacetamido)propanamido)propanamide], the IC50 against β5 was determined as 342 nM; at LMP7, 97.1 nM; in series [1] it was 13.5 nM; in series [2], 68.6 nM.
As for `COCCC(=O)N[C@@H](C)C(=O)N[C@@H](Cc1ccc(OC)cc1)C(=O)N[C@@H](CC1CCCC1)C(=O)[C@@]1(C)CO1` [Compound C-2019, (S)—N—((S)-3-cyclopentyl-1-((R)-2-methyloxiran-2-yl)-1-oxopropan-2-yl)-3-(4-methoxyphenyl)-2-((S)-2-(3-methoxypropanamido)propanamido)propanamide], the solubility in the series “Solubility pH 7” amounted to 316 µg/mL (≈ 594 µM). Moreover, the IC50 in series [1] amounted to 332 nM; in series [2], 579 nM.
With `COc1ccc(C[C@H](NC(=O)[C@H](C)NC(=O)Cc2cc(C)no2)C(=O)N[C@@H](CC2CCCC2)C(=O)[C@@]2(C)CO2)cc1` [Compound C-2014, (S)—N—((S)-3-cyclopentyl-1-((R)-2-methyloxiran-2-yl)-1-oxopropan-2-yl)-3-(4-methoxyphenyl)-2-((S)-2-(2-(3-methylisoxazol-5-yl)acetamido)propanamido)propanamide], the IC50 stood at 372 nM on β5, 56.4 nM at LMP7, 16.6 nM in series [1] and 45.7 nM in series [2].
Take `COc1ccc(C[C@H](NC(=O)[C@@H](C)NC(=O)c2ccno2)C(=O)N[C@@H](CC2CCCC2)C(=O)[C@@]2(C)CO2)cc1` [Compound C-2041, N—((R)-1-(((S)-1-(((S)-3-cyclopentyl-1-((R)-2-methyloxiran-2-yl)-1-oxopropan-2-yl)amino)-3-(4-methoxyphenyl)-1-oxopropan-2-yl)amino)-1-oxopropan-2-yl)isoxazole-5-carboxamide]: the solubility in “Solubility pH 7” was found to be 65.9 µg/mL (≈ 122 µM). Also, the IC50 was 1400 nM in series [1] and 9800 nM in series [2].

Broadly, the IC50 is the concentration needed to halve the response being measured. A high value points to weaker potency in that assay. A word on the solubility: it is how much of the substance goes into solution per volume. Read a low solubility as a poorly soluble substance.
